In patent US10413532B2, “Pharmaceutical compositions containing a PDE4 inhibitor and a PI3 delta or dual PI3 delta-gamma kinase inhibitor” (Rhizen Pharmaceuticals SA, priority 2012, dated 2019):

Test system: macrophage and neutrophil infiltration
Assay: Acute cigarette smoke induced cell infiltration in male Balb/c mice
Format: in vivo
Conditions: acute CS, mouse
Method: Animals were acclimatized for seven days prior to the start of the experiment. Animals were randomly distributed to various groups based on their body weights. On day 1, mice were administered by test compound or vehicle by the oral route and after 30 mins test compound administration animals were placed in a whole body exposure box. The mice were exposed to the mainstream smoke of 6 cigarettes from day 1 to day 4. Exposure to the smoke of each cigarette lasted for 10 min (cigarettes were completely burned in the first two minutes and followed by an air flow with animal ventilator) followed by exposure for the next 20 min with fresh room air. After every second cigarette an additional break of 20 min with exposure to fresh room air was conducted. Control animals were exposed to the room air chamber. From day 1 to day 4 animals were administered test compound by the oral route. On day 5, 24 hours after the last cigarette smoke (CS) exposure. animals were exsanguinated under anaesthesia, and the trachea was cannulated and the lungs were lavaged with 0.5 ml aliquots of heparinised PBS (1 unit/ml) four times through a tracheal cannula (total volume 2 ml). Bronchioalveolar (BAL) collected was stored at 2-8° C. until assayed for total cell and differential leukocyte count. BAL fluid was centrifuged (500×g for 10 min) and the resulting cell pellet was resuspended in 0.5 ml of heparinised saline. The total number of white blood cells was determined in BAL fluid and blood using a blood cell counter and adjusted to 1×10^6 cell/ml. Differential cell count was calculated manually. Forty microliters of the cell suspension was centrifuged using cytospin 3 to prepare a cell smear. The cell smear was stained with a blood staining solution for differentiation and microscopically observed by identifying each cell according to its morphological characteristics. The number of each cell type among 300 white blood cells in the cell smear were determined and expressed as a percentage, and the number of neutrophils and macrophages in each BAL fluid were calculated.
The procedure for acute cigarette smoke induced cell infiltration in male Balb/c mice described in Example 1 was performed with Compound A1 and roflumilast

[1] = 3 mg/kg oral, dose-response study
[2] = combination study, alone at 3.5 mg/kg

## O=C(Nc1c(Cl)cncc1Cl)c1ccc(OC(F)F)c(OCC2CC2)c1 [Compound A, roflumilast, reference compound]
1 mg/kg oral
  percent inhibition of macrophage infiltration: 22.2%
  percent inhibition of neutrophil infiltration: 70.85%
[1]
  percent inhibition of macrophage infiltration: 51.00%
  percent inhibition of neutrophil infiltration: 73.69%
10 mg/kg oral
  percent inhibition of macrophage infiltration: 69.11%
  percent inhibition of neutrophil infiltration: 83.01%
Macrophage, oral, read-out: 50% inhibition (ED50) dose, macrophage infiltration
  ED50: 3.5 mg/kg
[2]
  inhibition of macrophage infiltration: 26.55%
  inhibition of neutrophil infiltration: 44.42%
